Measured values taken from patent US8937096B2, “Use of benzo-fused heterocyle sulfamide derivatives for the treatment of mania and bipolar disorder” (priority 2005, dated 2015).
Where two headings read alike, the source gives them in different places.

Columns and labels:
[1] = tested on: dominant rats; test: Dominant-Submissive Relations (DSR) assay: Reduction of Dominant Behavior Model (RDBM) of mania; type: in vivo, rat
Description: (§1) The DSR assay is divided into two models: Reduction of Dominant Behavior Model (RDBM) of mania and Reduction of Submissive Behavior Model (RSBM) of depression. The RDBM, wherein the dominant animals are treated with test compound, is predictive of the ability of the test compound to treat mania. The RSBM, wherein the submissive animals are treated with test compound, is predictive of the ability of the test compound to treat depression.
(§2) Male Sprague Dawley rats (140 to 160 g) from Charles River Laboratories Wilmington, Mass. were used in this assay. Shipments of rats were received at two-week intervals. Each shipment went through five-day quarantine, one-week acclimation period, and one-week selection process, followed by five-weeks of drug or vehicle treatment to those pairs selected.
(§3) Rats were housed four per cage. Access to food was restricted to one hour per day after testing on Monday through Thursday. After testing on Friday, rats had free access to food until being fasted again on Sunday. At no time were the rats deprived of water. The food deprivation periods used had little effect on weight gain as the average weight of rats was about 300 g at the end of the study. At the conclusion of experiment rats were sacrificed by decapitation, the trunk blood and brains were collected for in vitro experiments and drug concentration measurements.
(§4) The basic testing apparatus consisted of two chambers connected with a tunnel only large enough to allow one rat to pass through at a time. On the floor, at the mid-point of the tunnel was a container of sweetened milk. This basic apparatus was replicated, so that a total of four pairs of rats can be video tracked simultaneously. The camera can distinguish rats marked by different colors. Thus, the rats' heads were colored for the purpose of video tracking, red in one cage and yellow in the other cage. Only one animal at a time can have comfortable access to the feeder, but both animals can drink milk during the five-minute daily session. During the five-minute daily sessions, time spent in the feeder zone by each rat was recorded by the video tracking software and saved into a text file.
The test began with a random assignment of rats into pairs. Each member of a pair was placed in an opposite chamber of the testing apparatus. The time spent in the feeder zone by each animal was recorded. During the first week (five days) of testing the animals habituate to the new environment. Dominance was assigned to the animal with the highest score during the second week of testing if three criteria were achieved. First, there must have been a significant difference (two-tailed t-test, P<0.05) between the average daily drinking scores of both animals. Second, the dominant animal score must have been at least 25% greater than the submissive animal's score. Finally, there must have been no “reversals” during the pair selection week where the putative submissive rat out-scored its dominant partner on isolated occasions. Ideally there were minimal reversals during the acclimation week as well. About twenty-five to thirty-three percent of the initial animal pairs achieved these criteria and only these pairs were continued in the study.
(§5) Significant differences between time spent on the feeder by dominant and submissive rats were determined by ANOVA using GraphPad Prism software (GraphPad Software, Inc. San Diego, Calif.) followed by a two-tailed t-test (P<0.05). Comparisons were made between treatment groups using normalized dominance level values in paired animals. The dominance level is a value that measures social relation between paired subjects. Dominance level (DL)=FTD−FTS where FTD is the feeder time of dominant rats and FTS is the feeder time of submissive rats. The normalization was conducted according to the formula: Dominance Level(week n in %)=(Dominance Level(week n))/(Dominance Level(week 2) […]

[2] = tested on: hippocampal kindled seizures; test: Rat Hippocampal Kindling Test (Interruption of Kindled State); type: in vivo; settings: reference drugs; suppression at doses associated with toxicity
Description: In the present rapid hippocampal kindling model adult male Sprague-Dawley rats (300-400 g) were surgically implanted with bipolar electrodes placed in the hippocampus. […] One week later, the rats received 2-3 supra-threshold stimulations delivered every 30 min before treatment with test compound, to ensure stability of the behavioral seizure stage and after-discharge duration. Fifteen minutes after the last stimulation, a single dose of vehicle or test compound was administered i.p. (intraperitoneally). After 15 min, each rat was then stimulated every 30 min for 3 to 4 h. After each stimulation, individual seizure scores and after-discharge durations were recorded. The group mean±SEM were calculated for each parameter. Eight rats per dose and a minimum of four doses were used to establish an ED50 value. Efficacy was measured as the ability of a compound to modify the seizure score (severity of spread) and after-discharge duration (ADD; excitability) of the generalized seizures.
Thus, according to the theories presented in current literature (Ghaemi, S. N., Boiman, E. E., and Goodwin, F. K., Soc. of Bio. Psychiatry, (1999), vol. 45, pp 137-144; Stoll, A. L., and Severus, W. E., Harvard Rev. Psychiatry, July/August (1996), Vol. 4, No. 2, pp 77-89) a decrease in seizure score and/or ADD may also be predictive of the ability of a test compound to treat the cycling associated with bipolar disorder.

[3] = tested on: submissive rats; test: Dominant-Submissive Relations (DSR) assay: Reduction of Submissive Behavior Model (RSBM) of depression; type: in vivo, rat
Description: as §1, §2, §3, §4
The test began with a random assignment of rats into pairs. Each member of a pair was placed in an opposite chamber of the testing apparatus. The time spent in the feeder zone by each animal was recorded. During the first week (five days) of testing the animals habituate to the new environment. Dominance was assigned to the animal with the highest score during the second week of testing if three criteria were achieved. First, there must have been a significant difference (two-tailed t-test, P<0.05) between the average daily drinking scores of both animals. Second, the dominant animal score must have been at least 25% greater than the submissive animal's score. Finally, there must have been no “reversals” during the pair selection week where the putative submissive rat out-scored its dominant partner on isolated occasions. Ideally there were minimal reversals during the acclimation week as well. About twenty-five to thirty-three percent of the initial animal pairs achieved these criteria and only these pairs were continued in the study. […]
as §5

[4] = tested on: Sprague Dawley rats; test: Forced Swim Test (Acute); type: in vivo, rat
Description: The Forced Swim test (FST) is a commonly used procedure to screen compounds for possible antidepressant properties. This test is also known as the behavioral despair test. Rodents placed in […] tanks filled with water present a wide variety of escape or immobility behaviors. Antidepressant drugs from different classes markedly increase escape behaviors and/or decrease latency or duration of immobility.
Venlafaxine and desipramine were dissolved in water. All drugs and their vehicles were administered orally (p.o.) by gavage in a volume of 5 mL/kg.
Male Sprague Dawley rats (140 to 160 g) from Charles River Laboratories Wilmington, Mass. were used. The animals went through a five-day quarantine period before being subjected to the experimental procedure.
Animals were housed in groups of four in plastic cages at an ambient temperature of 21° C. to 23° C. with an automated 12 hour light/dark cycle and access to water and commercial rodent food ad libitum. Animals were not handled more than for the routine bedding change prior to pre-test swim session.
Each experiment consisted of seven treatment groups with n=4 animals per group. A total of 28 animals per experiment were used. Two consecutive experiments (1 and 2, 3 and 4, and 5 and 6) were exact replicas of each other. […] One treatment group of n=4 animals in each experiment was a vehicle treated group. […] In experiments 5 and 6 the effects of venlafaxine and maprotyline at 12 mg/kg, 30 mg/kg, and 60 mg/kg were tested.
The basic apparatus consisted of a cylinder (46 cm tall×˜20 cm diameter) filled with water to 30 cm deep, at a temperature of 25±1° C. The automated version of the FST was used to perform the experiments. Plumbing for automatic filling and emptying water connected the four cylinders. Cylinders were placed in the dividing chambers 25 cm wide to separate animals visually. Each 5-minute experimental session was videotaped and analyzed in real time by computer software (Clever Systems, Inc.) for four animals at a time. The immobility, swimming, climbing and escape times were recorded by the software. The four activities are defined as follow. Immobility: the animal floats motionlessly or makes only those movements necessary to keep its head above water; Climb: the animal vigorously moves vertically while scratching the wall around the cylinder; Swim: the animal moves horizontally around in the cylinder more than necessary to keep its head above water; and Escape: sum of all vigorous active movements.
The ability of a test compound to decrease the duration or frequency of immobility, or changes in swimming, climbing and escape times, was measured using the FST procedure described above. […] The analysis of the results in the studies described was focused on the immobility time during 5-minute test session.
There were two swim sessions in each experiment. First, a pre-test swim session for 15 minutes was performed. Following 48 hours later was a test session of 5-minute duration. Upon completion of a swim session, each animal was placed under a heat lamp in a cage with soft bedding for approximately 15 minutes to prevent hypothermia.
Animals were pre-treated with a vehicle or test compound after completing the pre-test swim session, then 24 hours later and then shortly prior to the 5-minute test session; i.e., three injections were given to each animal between the two swim sessions that occurred on 3 consecutive days.
(§6) Data were analyzed using GraphPad Prism software (GraphPad Software, Inc. San Diego, Calif.). For the comparison of the effect of different doses for various drugs on immobility in the FST one-way ANOVA was used followed by Dunnett's multiple comparison test. […] The ED50 and Emax values were statistically compared using two-tail t-test.

[5] = tested on: CH3/HeJ mice; test: Tail Suspension Test (Acute); type: in vivo, mouse; settings: for ED50: Mus musculus, po, 7 min; for Immobility Emax % of C / Mobility Emax % of C: p.o., CH3/HeJ mice, 7-min session
Description: In the tail suspension test (TST) for evaluating compounds for anti-depressant activity, mice are suspended by their tails to a metal or plastic rod using clip or scotch tape. The test is usually quite short, 5-7 min, and the amount of time the mice spend immobile is recorded either manually or with an automated device. Agents which have antidepressant activity, decrease the duration of immobility of mice in this test.
The basic apparatus for the tail suspension assay consisted of a yellow plastic chamber (91×45×10 cm) divided for four arenas 25, 20, 20 and 25 cm wide separated by yellow plastic walls 0.75 cm thick. Mice were suspended by their tails using a rubber clip (7 cm long) attached to the plastic rod that was placed on the top of a testing chamber half way through its deep dimension. Each experimental session was videotaped and analyzed for four animals in the real time by computer software (“Depression Scan” Clever Sys Inc.). The computer justification of immobility was calibrated with the use of animals dosed with lorazepam while justification of movement was calibrated with the high dose of desipramine treated animals. […] The settings were adjusted separately for dark (CH3/HeJ and C57BI/6J strains) and white mice (Balb/cJ and A/J strains). A yellow background was used for dark mice and a blue background was used to record movements of white mice.
The ability of a test compound to decrease the duration of immobility, or increase mobility was measured using the TST procedure described above.
as §6, with “TST” for “FST”, “analyses of variance (ANOVA) were” for “ANOVA was”, “were” for “were statistically”, “two-way ANOVA and Bonferroni post-hoc test.” for “two-tail t-test.”
Positive controls included duloxetine (DLX), venlafaxine (VLX) and desipramine (DMI) which were dissolved in 0.5% methylcellulose and lorazepam (LOR) which was suspended in 0.5% of methylcellulose in water by sonication. All drugs and vehicles were administered orally (p.o.) by gavage in a volume of 10 mL/kg.
The mice were ordered 5 weeks old and at the beginning of experiment their weight was 20±5 g. Animals were housed in groups of four in plastic cages at an ambient temperature of 21° C. to 23° C. with an automated 12/12 hours light/dark cycle and access to water and a commercial rodent food ad libitum.
Each experiment consisted of seven treatment groups with four animals per group. A total of 28 animals per experiment were used. Every two consecutive experiments (1 & 2, 3 & 4, 5 & 6 and 7 & 8) were exact replicas of each other. […] One treatment group of four animals in each experiment was a vehicle treated group. In addition to the vehicle treated group, the effects of DMI at 6 mg/kg, 12 mg/kg, 30 mg/kg, 60 mg/kg and 120 mg/kg and LOR at 5 mg/kg were tested in experiments 1 and 2. […] In experiments 5 and 6 the effects of DLX at 6 mg/kg, 12 mg/kg, 30 mg/kg, 60 mg/kg, 120 mg/kg and LOR at 5 mg/kg were tested.

[Cl-].[Li+] [lithium chloride, reference compound] was tested, and the “dominance level effect vs control” value ([1]; 100 mg/kg) was “significantly different from control only after the third week of treatment”.
CCC1(C)CC(=O)NC1=O (stereo not shown) [Ethosuximide] was tested, and the “seizure activity in the hippocampal kindling model” value (“seizure activity” below) [2] was “ineffective”.
In the case of CNCCC(Oc1ccc(C(F)(F)F)cc1)c1ccccc1 (stereo not shown) [fluoxetine, reference compound], the “submissiveness during first week of treatment” value ([3]; fluoxetine 10 mg/kg i.p., Compound #8 treated groups p.o.) was “increased submissiveness during first week of treatment” and the “significant difference between dominant and submissive rats lost” value ([3]; submissive rats treated i.p. at 10.0 mg/kg) was “lost after third week of treatment”.
For O=C1NC(=O)C(c2ccccc2)(c2ccccc2)N1 [Phenytoin], the “seizure activity” value [2] was “significantly suppressed seizure activity”.
For CNCCCC12CCC(c3ccccc31)c1ccccc12 [maprotyline], the “doses at which effect on immobility was statistically significant vs vehicle” value ([4]; p.o.) was 30 mg/kg and 60 mg/kg.
In the case of CCCC(CCC)C(=O)[O-].[Na+] [sodium valproate, reference compound], the dominance level ([1]; 30 mg/kg i.p. QD) was “decreased dominance level after the second week of treatment”, the “difference between dominant and submissive rats lost” value ([1]; dominant rats treated i.p. QD at 30 mg/kg) was “lost after first week of treatment” and the “permissiveness of the treated dominant rats” value ([1]; treated dominant rats permitted submissive partners to increase time on the feeder) was “observed to increase”.
In the case of NC(=O)N1c2ccccc2C=Cc2ccccc21 [Carbamazepine], the “seizure activity” value [2] was “significantly suppressed seizure activity”.
In the case of O=C1Nc2ccc(Cl)cc2C(c2ccccc2Cl)=NC1O (stereo not shown) [Lorazepam, lorazepam], the “effect on the rats' immobility time” value ([4]; 1 mg/kg p.o., negative control) was “no significant effect”.
For CNCC[C@H](Oc1cccc2ccccc12)c1cccs1 [DLX, duloxetine], the ED50 ([5]; read-out: Immobility ED50) was 31.4 mg/kg, the ED50 ([5]; read-out: Mobility ED50) was 61.5 mg/kg and the “Immobility Emax % of C” value [5] was 80.4 % of C. The “Mobility Emax % of C” value [5] was 175.5 % of C.
In the case of CNCCCN1c2ccccc2CCc2ccccc21 [DMI, desipramine], the “Immobility Emax % of C” value [5] was 38.5 % of C, the “Mobility Emax % of C” value [5] was 195.7 % of C and the “Emax (immobility) in the FST” value ([4]; p.o.) was 50.0 ± 8.4 s. The “doses at which effect on immobility was statistically significant vs vehicle” value ([4]; p.o.) was 6 mg/kg, 12 mg/kg, 30 mg/kg, and 60 mg/kg.
